How the values were obtained:
HNSCC cell lines [1] = assay: CellTiter-Glo cell viability assay; type: cell-based, human; conditions: for cell viability, NOTCH1MUT and NOTCH1WT cell lines: 0-200 nM
Description: Cell viability assay. […] A CellTiter-Glo luminescent cell viability assay (Promega, Madison, WI) was performed as described previously (Castel et al., 2016; Muellner et al., 2011). Inhibitory concentration (ICs) and area under the curve (AUC) values were calculated using the drexplorer R package with a best-fit dose-response model (Zumsteg et al., 2016). The combination indices were calculated using the Chou-Talalay method (Cal et al., 2017) in CalcuSyn (Biosoft, Cambridge, UK). We tested the reproducibility and robustness of the data generated using three quality control parameters as described previously (Bohnacker et al., 2017). These parameters were the concordance correlation coefficient, location shift, and maximum standard deviation between two biological replicates for three technical and two biological replicates. Based on heuristics from our previous screening studies in lung cancer (Bohnacker et al., 2017), the cut-offs for reproducibility were a concordance correlation coefficient greater than 0.8, a location shift less than 0.9, and a standard deviation less than 0.23 based on the normal mixture fit model. Experiments not satisfying these criteria were repeated. The replicate with the smallest experimental variation measured by the median of standard deviation was chosen as a representative of the replicates, and its IC values served as the final values for subsequent analysis.
Cell lines were classified as sensitive based on IC70 values less than the peak plasma concentration for each drug. To determine if cross-comparison of the PI3K/mTOR inhibitors as a class was feasible, their drug sensitivity patterns were compared with those of three cell cycle kinase inhibitors tested previously (Zhang et al., 2017). The PI3K/mTOR pathway inhibitors clustered separately from the cell cycle inhibitors (FIG. 12C).

HNSCC cell lines [2] = assay: Apoptosis assays (Annexin V/propidium iodide, BrdU TUNEL, cleaved PARP/caspase 3); type: cell-based, human; conditions: alone, regardless of NOTCH1 status
Description: FIGS. 7A-7D: PI3K/mTOR signaling inhibition induces cell death in NOTCH1^MUT but not NOTCH1^WT head and neck squamous cell carcinoma (HNSCC) cell lines in vitro. FIG. 7A. Annexin V/propidium iodide or BrDU-terminal deoxynucleotidyl transferase (TdT) dUTP nick-end labeling (TUNEL) assays were used to measure apoptosis in HNSCC cells with the indicated NOTCH1 and PIK3CA mutations, which were treated with 50 nM GSK2126458 (GSK212) for 24 or 48 hours, respectively. Values are the means±standard deviations of three independent experiments. *p<0.05, unpaired two-tailed Student t-test. FIG. 7B. Western blotting of cleaved PARP (Cl-PARP) and cleaved caspase 3 (Cl-Caspase 3) levels in mutant and wild type cells after GSK212 treatment for 48 hours. FIG. 7C. NOTCH1^MUT and NOTCH1^WT HNSCC cells were plated sparsely and treated with GSK212 at the indicated concentrations for 48 hours. At 14-21 days after treatment, the cells were fixed and stained, images were captured using the GelCount Tumour Colony Counter, and colony numbers and the colorimetric intensity of the colonies were determined by measuring the optical density (OD) at 570 nm. Values are the means±standard deviations of three independent experiments. *p<0.001, unpaired two-tailed Student t-test. FIG. 7D. Three NOTCH1^WT lines (black text and bars) and three NOTCH1^MUT lines (red text and bars) were treated with increasing concentrations of GSK212 for 4 hours, and levels of PI3K/mTOR pathway proteins were measured by Western blot analysis.
Western blot analysis. Western blot analysis was performed as described previously (Ferrarotto et al., 2016). In brief, cells were lysed with ice-cold lysis buffer, and the lysates were centrifuged at 20,000×g for 10 minutes at 4° C. Cell samples containing equal amounts of protein were resolved using sodium dodecyl sulfate-polyacrylamide gel electrophoresis, transferred to nitrocellulose membranes, and immunoblotted with different primary antibodies. Protein expression was detected using a horseradish peroxidase-conjugated secondary antibody (Bio-Rad, Hercules, CA) and electrochemiluminescence reagent (Amersham Biosciences, Pittsburg, PA).
Apoptosis and cell cycle assays. To measure apoptosis, we performed terminal deoxynucleotidyl transferase dUTP nick end labeling (TUNEL) staining with an APO-BRDU Kit (BD Biosciences, San Jose, CA) and Annexin V/propidium iodide staining with an FITC Annexin V Apoptosis Detection Kit (BD Pharmingen, San Diego, CA) as described previously (Chandarlapaty et al., 2011). […] Data were acquired with a three-laser, 10-color Gallios flow cytometer (Beckman Coulter, Brea, CA) and analyzed using Kaluza software (Beckman Coulter, Brea, CA). […]

EGFR^MUT lung cancers = conditions: EGFRMUT lung cancers; cited from earlier work
HNSCC cell lines [3] = assay: Sensitivity of 69 HNSCC cell lines to bimiralisib; type: cell-based, human
Excerpt: IC50 values were estimated from the best-fit dose-response model selected by calculating residual standard error using the R packages Dose Finding and drc (dose response curve) (Ritz and Streibig 2005, Bornkamp, Bretz et al. 2011). All experiments were done in duplicate and we compared the response between two experiments using concordance correlation coefficient (CCC). The CCC can be computed based on the scaled response as well as original unscaled response. The scaled version should be more relevant since this is actually the data used in IC estimation. […] To identify differentially expressed features between the comparative groups, we applied modified two-sample t-tests using the Limma package. The beta-uniform mixture (BUM) model, described by Pounds and Morris was used to control false discovery rate (FDR) (Pounds and Morris 2003).

pAKT, pS6 and p4EBP = conditions: therapeutic doses; cited from earlier work
[4] = test system: pAKT, pS6 and p4EBP1 in HNSCC cell lines; assay: Western blot of PI3K pathway signaling after bimiralisib; type: cell-based, human; conditions: four HNSCC cell lines, 2 hours
Description: Cells were lysed and then resolved by SDS PAGE. Western blot analysis was performed using the indicated antibodies.

[5] = administered orally; cited from earlier work
[6] = test system: UM22A, HN31 and FaDu HNSCC xenografts; assay: Orthotopic tongue xenografts treated with bimiralisib; conditions: for tumor growth: 50 mg/kg PO once daily 28 days
other protein kinases = conditions: cited from earlier work
[7] = human, oral; cited from earlier work
HNSCC cell lines [8] = assay: BrdU TUNEL cell death, cell cycle and apoptosis markers after bimiralisib; type: cell-based, human; conditions: 5 μM
Excerpt: Apoptotic death in NOTCH1 mutants, but not wt cell lines, was confirmed with cleaved PARP and Caspase 3.

With `COc1c(OCCCN2CCOCC2)ccc2c1N=C(NC(=O)c1cnc(N)nc1)N1CCN=C21` [BAY806946] the “cell viability, NOTCH1MUT and NOTCH1WT cell lines” value (HNSCC cell lines [1]; 72 hours) was “differential effects”.

In the case of `CO[C@H]1C[C@@H]2CC[C@@H](C)[C@@](O)(O2)C(=O)C(=O)N2CCCC[C@H]2C(=O)O[C@H]([C@H](C)C[C@@H]2CC[C@@H](OP(C)(C)=O)[C@H](OC)C2)CC(=O)[C@H](C)/C=C(\C)[C@@H](O)[C@@H](OC)C(=O)[C@H](C)C[C@H](C)/C=C/C=C/C=C/1C` [ridaforolimus], the “cell viability, NOTCH1MUT and NOTCH1WT cell lines” value (HNSCC cell lines [1]; 72 hours) is reported as “resistant”.

With `NC1(c2ccc(-c3nc4ccn5c(=O)[nH]nc5c4cc3-c3ccccc3)cc2)CCC1` [MK-2206] the “cell viability, NOTCH1MUT and NOTCH1WT cell lines” value (HNSCC cell lines [1]; 72 hours) was “resistant”.

With `Nc1cc(C(F)(F)F)c(-c2cc(N3CCOCC3)nc(N3CCOCC3)n2)cn1` [BKM120] the “effectiveness across HNSCC cell lines (IC70)” value (HNSCC cell lines [1]; 59 HNSCC cell lines, 72 hours) was “almost universally effective”.

For `CNc1nc(-c2ccc3c(N)n[nH]c3c2)cc(N2C[C@@H](C(=O)NC3CCCCC3)CC[C@H]2C)n1` [GSK2334470], the apoptosis (HNSCC cell lines [2]) was “little effect” and the cell viability (HNSCC cell lines [1]; alone, regardless of NOTCH1 status) was “little effect”.

For `C=CC(=O)Nc1cc(Nc2nccc(-c3cn(C)c4ccccc34)n2)c(OC)cc1N(C)CCN(C)C` [osimertinib], the response rate (EGFR^MUT lung cancers) is given as “about 80%”.

With `Nc1cc(C(F)(F)F)c(-c2nc(N3CCOCC3)nc(N3CCOCC3)n2)cn1` [bimiralisib, 5-(4,6-Dimorpholino-1,3,5-triazin-2-yl)-4-(trifluoromethyl)pyridin-2-amine] the IC50 (HNSCC cell lines [3]; Homo sapiens, 66 of 69 HNSCC cell lines) was < 3000 nM, the “number of cell lines Resistant” value (HNSCC cell lines [3]; NOTCH1 Mutant cell lines) was 3 and the “number of cell lines Sensitive” value (HNSCC cell lines [3]; NOTCH1 Mutant cell lines) was 12. The “number of cell lines Resistant” value (HNSCC cell lines [3]; NOTCH1 WT cell lines) was 20, the “number of cell lines Sensitive” value (HNSCC cell lines [3]; NOTCH1 WT cell lines) was 18 and the “pAKT, pS6 and p4EBP in tumor tissue” value (pAKT, pS6 and p4EBP) was “marked decreases”. The “pAKT, pS6 and p4EBP1 (Western blot)” value [4] was “decrease”, the “pAKT, pS6 and p4EBP1 (Western blot)” value ([4]; listed as Bimiralisib) was “inhibits PI3K pathway signaling” and the “crossing of the blood-brain barrier” value [5] was “crosses the blood-brain barrier”. The tumor growth ([6]; FaDu (NOTCH1wt)) was “not affected”, the tumor growth ([6]; UM22A and HN31 (NOTCH1 inactivating mutations)) was “significant reduction of tumor growth” and the body weight ([6]; 50 mg/kg PO once daily, 28 days, mice) was “without body weight loss”. For the same compound, the “inhibition of other protein kinases (KINOMEscan)” value (other protein kinases) was “does not significantly inhibit”, the Tmax [7] was < 2 h and the terminal half-life [7] was 51 h. For the same compound, the “cell death by BrdU-TUNEL” value (HNSCC cell lines [8]; 48 hours, HNSCC lines with NOTCH1 mutations) was “significantly increased” and the cell cycle effect (HNSCC cell lines [8]; HNSCC NOTCH1wt lines) was “arrested cell lines in G1/S”.

— patent US12195804B2, “Treatment of squamous cell carcinoma” (Board of Regents, The University of Texas System, priority 2018, dated 2025)
